Experimental data from paper PMC12666248, “Synthesis of an N‐Galactosyl Norbornane Aziridine and its Potent Mixed Inhibition of Aspergillus oryzae β‐Galactosidase” (Chembiochem, 2025).

Target: T1, β-galactosidase (A. oryzae) (Aspergillus oryzae, UniProt Q2UCU3)
T1 construct: gene lacA
T1 sequence (Q2UCU3 19-1005): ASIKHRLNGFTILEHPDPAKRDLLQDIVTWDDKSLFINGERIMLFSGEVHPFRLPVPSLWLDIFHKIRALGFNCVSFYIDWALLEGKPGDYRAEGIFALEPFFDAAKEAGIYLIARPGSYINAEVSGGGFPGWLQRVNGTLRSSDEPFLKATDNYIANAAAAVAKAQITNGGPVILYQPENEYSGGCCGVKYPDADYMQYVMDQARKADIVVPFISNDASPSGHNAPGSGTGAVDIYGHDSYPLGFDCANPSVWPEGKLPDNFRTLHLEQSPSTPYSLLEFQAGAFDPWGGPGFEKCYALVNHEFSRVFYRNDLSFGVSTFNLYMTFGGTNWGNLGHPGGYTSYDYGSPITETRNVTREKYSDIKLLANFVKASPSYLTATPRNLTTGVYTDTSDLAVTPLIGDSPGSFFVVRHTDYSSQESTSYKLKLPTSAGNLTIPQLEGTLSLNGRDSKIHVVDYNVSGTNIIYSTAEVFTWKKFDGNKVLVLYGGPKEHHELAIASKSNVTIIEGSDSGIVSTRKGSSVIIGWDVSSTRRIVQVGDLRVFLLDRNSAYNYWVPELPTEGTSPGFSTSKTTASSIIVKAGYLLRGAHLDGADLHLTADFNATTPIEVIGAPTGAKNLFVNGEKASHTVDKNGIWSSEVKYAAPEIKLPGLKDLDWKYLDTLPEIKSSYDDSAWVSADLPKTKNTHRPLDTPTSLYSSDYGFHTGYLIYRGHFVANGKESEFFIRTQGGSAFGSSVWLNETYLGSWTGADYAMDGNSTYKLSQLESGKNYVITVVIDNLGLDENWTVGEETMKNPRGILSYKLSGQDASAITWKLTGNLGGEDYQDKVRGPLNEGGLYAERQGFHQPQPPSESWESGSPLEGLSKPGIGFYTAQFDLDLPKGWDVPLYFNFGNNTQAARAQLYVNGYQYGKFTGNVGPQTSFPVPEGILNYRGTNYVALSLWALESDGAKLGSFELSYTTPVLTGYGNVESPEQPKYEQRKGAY
Assay: Enzyme kinetics with 2-nitrophenyl β-D-galactopyranoside, absorbance at […] nm, Lineweaver–Burk analysis, pH […] °C
Assay type: biochemical

Compound: OC[C@H]1O[C@@H](N2[C@@H]3[C@H]4CC[C@H](C4)[C@@H]32)[C@H](O)[C@@H](O)[C@H]1O (stereo partly drawn) [compound 6, N‐(β‐D‐galactopyranosyl)‐exo‐3‐azatricyclo[3.2.1.0^2,4]octane]
- Ki: 3.65 µM
